Results from ChEMBL document CHEMBL3885861, “Open TG-GATES”.

Species: Rattus norvegicus
Experiment: Open TG-GATES - Regimen: Single
Assay type: toxicity, organism-based, Sprague-Dawley
Design: regimen Single, gender Male, age 6 weeks
Details: in vivo, po, 50 mg/kg, route gavage, dose level Middle; for APTT / Bas / Eos / Fbg / Hb / Ht / Lym / MCH / MCHC / MCV / Mono / Neu / PT / Plat / RBC / Ret / WBC: tissue Blood; for KIDNEY_L / KIDNEY_R / KIDNEY_TOTAL: tissue Kidney; for LIVER: tissue Liver; for A/G / ALP / ALT / AST / BUN / CRE / Ca / Cl / DBIL / GLC / IP / K / LDH / Na / PL / RALB / TBIL / TC / TG / TP / gamma-GTP: tissue Plasma

O=c1ccc2ccccc2o1 [COUMARIN]
TERMINAL_BW (3 h): 184.1 g | APTT (3 h): 16.3 s | Bas (3 h): 0% | Eos (3 h): 0.6% | Fbg (3 h): 198 mg/dL | Hb (3 h): 13.4 g/dL | Ht (3 h): 40.4% | Lym (3 h): 81.4% | MCH (3 h): 21.9 pg | MCHC (3 h): 33.2% | MCV (3 h): 65.9 fL | Mono (3 h): 4% | Neu (3 h): 14.2% | PT (3 h): 12.7 s | Plat (3 h): 114.8 x10_4/uL | RBC (3 h): 613.6 x10_4/ul | Ret (3 h): 9.3% | WBC (3 h): 104.2 x10_2/uL | KIDNEY_L (3 h): 0.9 g | KIDNEY_R (3 h): 0.9 g | KIDNEY_TOTAL (3 h): 1.7 g | LIVER (3 h): 8.1 g | A/G (3 h): 2.3 | ALP (3 h): 989.4 IU/L | ALT (3 h): 39.4 IU/L | AST (3 h): 68 IU/L | BUN (3 h): 12 mg/dL | CRE (3 h): 0.5 mg/dL | Ca (3 h): 10.7 mg/dL | Cl (3 h): 103.2 meq/L | DBIL (3 h): 0.032 mg/dL | GLC (3 h): 191.4 mg/dL | IP (3 h): 10.4 mg/dL | K (3 h): 4.7 meq/L | LDH (3 h): 74.4 IU/L | Na (3 h): 138 meq/L | PL (3 h): 141 mg/dL | RALB (3 h): 3.8 g/dL | TBIL (3 h): 0.3 mg/dL | TC (3 h): 76.4 mg/dL | TG (3 h): 49.8 mg/dL | TP (3 h): 5.5 g/dL | gamma-GTP (3 h): 1 IU/L | TERMINAL_BW (6 h): 180.4 g | APTT (6 h): 16.5 s | Bas (6 h): 0% | Eos (6 h): 0.8% | Fbg (6 h): 210.2 mg/dL | Hb (6 h): 13.5 g/dL | Ht (6 h): 40.4% | Lym (6 h): 79.8% | MCH (6 h): 21.7 pg | MCHC (6 h): 33.3% | MCV (6 h): 65 fL | Mono (6 h): 5.8% | Neu (6 h): 13.8% | PT (6 h): 12.8 s | Plat (6 h): 104.8 x10_4/uL | RBC (6 h): 620.8 x10_4/ul | Ret (6 h): 9.7% | WBC (6 h): 103 x10_2/uL | KIDNEY_L (6 h): 0.8 g | KIDNEY_R (6 h): 0.9 g | KIDNEY_TOTAL (6 h): 1.7 g | LIVER (6 h): 7.7 g | A/G (6 h): 2.1 | ALP (6 h): 1018 IU/L | ALT (6 h): 37.2 IU/L | AST (6 h): 70 IU/L | BUN (6 h): 11.4 mg/dL | CRE (6 h): 0.5 mg/dL | Ca (6 h): 10.4 mg/dL | Cl (6 h): 106 meq/L | DBIL (6 h): 0.004 mg/dL | GLC (6 h): 183 mg/dL | IP (6 h): 10.2 mg/dL | K (6 h): 5 meq/L | LDH (6 h): 98.6 IU/L | Na (6 h): 138.4 meq/L | PL (6 h): 155.6 mg/dL | RALB (6 h): 3.7 g/dL | TBIL (6 h): 0.3 mg/dL | TC (6 h): 89 mg/dL | TG (6 h): 62.4 mg/dL | TP (6 h): 5.6 g/dL | gamma-GTP (6 h): 1.4 IU/L | TERMINAL_BW (9 h): 175.7 g | APTT (9 h): 16.7 s | Bas (9 h): 0% | Eos (9 h): 0.6% | Fbg (9 h): 186.4 mg/dL | Hb (9 h): 13.3 g/dL | Ht (9 h): 40.2% | Lym (9 h): 77.6% | MCH (9 h): 22.1 pg | MCHC (9 h): 33.2% | MCV (9 h): 66.6 fL | Mono (9 h): 6.2% | Neu (9 h): 15.6% | PT (9 h): 13 s | Plat (9 h): 102.3 x10_4/uL | RBC (9 h): 606 x10_4/ul | Ret (9 h): 9.6% | WBC (9 h): 95.4 x10_2/uL | KIDNEY_L (9 h): 0.8 g | KIDNEY_R (9 h): 0.8 g | KIDNEY_TOTAL (9 h): 1.7 g | LIVER (9 h): 7.2 g | A/G (9 h): 2.1 | ALP (9 h): 1020.8 IU/L | ALT (9 h): 38.6 IU/L | AST (9 h): 74.2 IU/L | BUN (9 h): 11.4 mg/dL | CRE (9 h): 0.5 mg/dL | Ca (9 h): 11.1 mg/dL | Cl (9 h): 106 meq/L | DBIL (9 h): 0.052 mg/dL | GLC (9 h): 189.6 mg/dL | IP (9 h): 10.7 mg/dL | K (9 h): 5.1 meq/L | LDH (9 h): 104.6 IU/L | Na (9 h): 139 meq/L | PL (9 h): 141.4 mg/dL | RALB (9 h): 3.7 g/dL | TBIL (9 h): 0.3 mg/dL | TC (9 h): 79.4 mg/dL | TG (9 h): 63 mg/dL | TP (9 h): 5.5 g/dL | gamma-GTP (9 h): 1 IU/L | TERMINAL_BW (24 h): 189.1 g | APTT (24 h): 15.5 s | Bas (24 h): 0% | Eos (24 h): 1.6% | Fbg (24 h): 192 mg/dL | Hb (24 h): 13.4 g/dL | Ht (24 h): 40.2% | Lym (24 h): 76.4% | MCH (24 h): 22 pg | MCHC (24 h): 33.4% | MCV (24 h): 66 fL | Mono (24 h): 11.4% | Neu (24 h): 11.2% | PT (24 h): 12.4 s | Plat (24 h): 110.8 x10_4/uL | RBC (24 h): 609 x10_4/ul | Ret (24 h): 8.4% | WBC (24 h): 100 x10_2/uL | KIDNEY_L (24 h): 0.9 g | KIDNEY_R (24 h): 0.9 g | KIDNEY_TOTAL (24 h): 1.8 g | LIVER (24 h): 9.4 g | A/G (24 h): 2.3 | ALP (24 h): 978.2 IU/L | ALT (24 h): 48 IU/L | AST (24 h): 74.6 IU/L | BUN (24 h): 15 mg/dL | CRE (24 h): 0.6 mg/dL | Ca (24 h): 10.9 mg/dL | Cl (24 h): 105.8 meq/L | DBIL (24 h): 0.012 mg/dL | GLC (24 h): 186.8 mg/dL | IP (24 h): 8 mg/dL | K (24 h): 5.1 meq/L | LDH (24 h): 113 IU/L | Na (24 h): 138.2 meq/L | PL (24 h): 140.2 mg/dL | RALB (24 h): 3.8 g/dL | TBIL (24 h): 0.3 mg/dL | TC (24 h): 77 mg/dL | TG (24 h): 66.6 mg/dL | TP (24 h): 5.5 g/dL | gamma-GTP (24 h): 1.2 IU/L
